The subject of this test is Raf-1^gof intestinal tumors. The note with it: for Log2 (fold) of luciferase activity relative to DMSO controls / Fold (luciferase activity relative to DMSO controls): ICCB compounds fed in vials to flies with one-day old Raf-1^gof tumors; for Log2 (fold) of luciferase activity relative to DMSO controls / Fold (luciferase activity relative to DMSO controls) / Log2 (fold) (luciferase activity, log2 of the fold difference relative to DMSO controls) / Fold (luciferase activity, fold difference relative to DMSO controls): assessed three days later; for Fold (luciferase activity relative to DMSO controls) / Fold (luciferase activity, fold difference relative to DMSO controls): averaged from multiple wells; for Log2 (fold) (luciferase activity, log2 of the fold difference relative to DMSO controls) / Fold (luciferase activity, fold difference relative to DMSO controls): screen of 480 ICCB compounds in vials, compounds fed to flies with one-day old Raf-1^gof tumors, esg-Gal4 luciferase.
Wherever Fold (luciferase activity relative to DMSO controls) is given: test concentration or dose not given here.
Wherever Fold (luciferase activity, fold difference relative to DMSO controls) is given: test concentration or dose not given here.
Wherever Log2 (fold) (luciferase activity, log2 of the fold difference relative to DMSO controls) is given: test concentration or dose not given here.
Wherever Log2 (fold) of luciferase activity relative to DMSO controls is given: test concentration or dose not given here.

`CCCCCCCCCCCCCC(=O)N[C@@H](C)[C@H](O)c1ccccc1` [MAPP, L-erythro]: the “Log2 (fold) of luciferase activity relative to DMSO controls” value was determined as 0.104 and the “Fold (luciferase activity relative to DMSO controls)” value came to 1.075 fold.
As for `CC(COc1ccccc1)N(CCCl)Cc1ccccc1` (stereo not shown) [Phenoxybenzamine], the “Log2 (fold) (luciferase activity, log2 of the fold difference relative to DMSO controls)” value was −0.600 and the “Fold (luciferase activity, fold difference relative to DMSO controls)” value is given as 0.660.
The like results for `O=C(O)CN1C(=O)c2cccc3cccc(c23)C1=O` [Alrestatin] were, in that order, −0.320 and 0.801.
On the same counts, the results for `CCCCCCCCCCC1=C(C)C(=O)C(OC)=C(OC)C1=O` [Decylubiquinone] are −0.442 and 0.736.
Take `CCCCCCCCCCCC=CCC=CCCCC(=O)O` [EICOSA-5,8-DIENOIC ACID (20:2 n-12)]: the “Log2 (fold) of luciferase activity relative to DMSO controls” value was −0.149 and the “Fold (luciferase activity relative to DMSO controls)” value is on record as 0.902 fold.
For `NC(=NC(=O)c1nc(Cl)c(N)nc1N)NCc1ccc(Cl)c(Cl)c1` [DICHLOROBENZAMIL], the “Log2 (fold) of luciferase activity relative to DMSO controls” value is listed as −0.116 and the “Fold (luciferase activity relative to DMSO controls)” value is 0.923 fold.
Regarding `COC[C@@H]([C@H](O)[C@H](O)C(=O)NCC[C@H](C)c1nc(/C=C/C[C@@H]2O[C@]3(C[C@@H](O)[C@@H]2C)O[C@H]([C@H](C[C@H](O)[C@H](C)[C@H](O)[C@H](C)/C=C(C)/C(C)=C/C=C/C(C)=C\C#N)OC)[C@H](OP(=O)(O)O)C3(C)C)co1)N(C)C` [calyculin A, reference compound], the “Log2 (fold) (luciferase activity, log2 of the fold difference relative to DMSO controls)” value was −1.276 and the “Fold (luciferase activity, fold difference relative to DMSO controls)” value is on record as 0.413. The Fold (Table 3 summary of hits, Screen ICCB, luciferase relative to DMSO, fed three consecutive days in vials) is reported as 0.413 fold.
Consider `CCCCC/C=C\C/C=C\C/C=C\C/C=C\CCCC(=O)NCCO` [ANANDAMIDE (20:4, n-6)], for which the “Log2 (fold) of luciferase activity relative to DMSO controls” value came to 0.054 and the “Fold (luciferase activity relative to DMSO controls)” value is listed as 1.038 fold.
As to `C[C@H]1CCC/C=C/[C@@H]2C[C@H](O)C[C@H]2[C@H](O)/C=C/C(=O)O1` [brefeldin A], the “Log2 (fold) (luciferase activity, log2 of the fold difference relative to DMSO controls)” value was −0.422 and the “Fold (luciferase activity, fold difference relative to DMSO controls)” value is listed as 0.746.
In the case of `COC(=O)C1=C(C)NC(C)=C(C(=O)OCCN(C)Cc2ccccc2)C1c1cccc([N+](=O)[O-])c1` (stereo not shown) [NICARDIPINE], the “Log2 (fold) (luciferase activity, log2 of the fold difference relative to DMSO controls)” value was −0.433 and the “Fold (luciferase activity, fold difference relative to DMSO controls)” value was 0.741.
For the molecule `CCCCC/C=C\C[C@@H](O)/C=C/C=C\C/C=C\CCCC(=O)O` [12(R)-HETE], the “Log2 (fold) (luciferase activity, log2 of the fold difference relative to DMSO controls)” value was −0.219 and the “Fold (luciferase activity, fold difference relative to DMSO controls)” value is 0.859.
On the same counts, the results for `CCCCC[C@H](O)/C=C/[C@H]1C(=O)C[C@H](O)[C@@H]1C/C=C\CCCC(=O)O` [PROSTAGLANDIN D2] are −0.413 and 0.751.
Consider `CCCCCC1OC1C/C=C\C/C=C\C/C=C\CCCC(=O)O` (stereo not shown) [14,15-EPOXYEICOSATRIENOIC ACID], for which the “Log2 (fold) of luciferase activity relative to DMSO controls” value turned out to be 0.322 and the “Fold (luciferase activity relative to DMSO controls)” value worked out at 1.250 fold.
Consider HA14-1, for which the “Log2 (fold) (luciferase activity, log2 of the fold difference relative to DMSO controls)” value was −0.590 and the “Fold (luciferase activity, fold difference relative to DMSO controls)” value is given as 0.664.
With `COc1ccc(C[C@H]2NC[C@H](O)[C@H]2OC(C)=O)cc1` [anisomycin], the “Log2 (fold) of luciferase activity relative to DMSO controls” value is listed as −0.148 and the “Fold (luciferase activity relative to DMSO controls)” value turned out to be 0.902 fold.
Turning to `Fc1ccc(C(c2ccc(F)cc2)N2CCN(C/C=C/c3ccccc3)CC2)cc1` [FLUNARIZINE], the “Log2 (fold) (luciferase activity, log2 of the fold difference relative to DMSO controls)” value is −0.836 and the “Fold (luciferase activity, fold difference relative to DMSO controls)” value is 0.560.
The like results for `N#C/C(=C\c1ccc(O)c(O)c1)C(=O)OC/C=C/c1ccccc1` [CDC] were, in that order, −0.360 and 0.779.
Consider `CCCCC/C=C\C/C=C\C/C=C\C=C\[C@H](CCCC(=O)O)OO` [5(S)-HPETE], for which the “Log2 (fold) (luciferase activity, log2 of the fold difference relative to DMSO controls)” value was −0.524 and the “Fold (luciferase activity, fold difference relative to DMSO controls)” value amounted to 0.696.
Regarding `CCCCC/C=C\C/C=C\C/C=C\C/C=C\CCCC(N)=O` [ARACHIDONAMIDE], the “Log2 (fold) of luciferase activity relative to DMSO controls” value is listed as −0.069 and the “Fold (luciferase activity relative to DMSO controls)” value was 0.954 fold.
Consider `O=C1Nc2ccc(I)cc2/C1=C/c1cc(Br)c(O)c(Br)c1` [GW-5074], for which the “Log2 (fold) (luciferase activity, log2 of the fold difference relative to DMSO controls)” value is −0.369 and the “Fold (luciferase activity, fold difference relative to DMSO controls)” value was 0.774.
On the same counts, the results for `O=C(O)c1cc([N+](=O)[O-])ccc1NCCCc1ccccc1` [NPPB] are −0.439 and 0.738.
With `CCOC(=O)C1=C[C@]2(CC)CCCN3CCc4c(n1c1ccccc41)[C@@H]32` [vinpocetine], the “Log2 (fold) of luciferase activity relative to DMSO controls” value is recorded as 0.280 and the “Fold (luciferase activity relative to DMSO controls)” value turned out to be 1.214 fold.
On the same counts, the results for `CCCCCCCC(=O)OC[C@H](CO)OC(=O)CCCCCCC` [1,2-DIOCTANOYL-SN-GLYCEROL] are −0.080 and 0.946 fold.
As for `CC(C)C[C@@H](/C=C/S(C)(=O)=O)NC(=O)[C@H](CC(C)C)NC(=O)[C@H](CC(C)C)NC(=O)OCc1ccccc1` [ZL3VS], the “Log2 (fold) (luciferase activity, log2 of the fold difference relative to DMSO controls)” value is given as −0.513 and the “Fold (luciferase activity, fold difference relative to DMSO controls)” value came to 0.701.
`CC[N+](CC)(CC)CC(=O)Nc1c(C)cccc1C` [QX-314]: the “Log2 (fold) of luciferase activity relative to DMSO controls” value is on record as 0.146 and the “Fold (luciferase activity relative to DMSO controls)” value worked out at 1.107 fold.
The like results for `O=C([O-])CCC/C=C\CC1C(O)CC(O)C1/C=C/C(O)COc1cccc(Cl)c1.[Na+]` (stereo not shown) [CLOPROSTENOL Na] were, in that order, 0.101 and 1.073 fold.
Take `O=C(O)c1ccccc1Nc1ccccc1`: the “Log2 (fold) (luciferase activity, log2 of the fold difference relative to DMSO controls)” value is listed as −0.355 and the “Fold (luciferase activity, fold difference relative to DMSO controls)” value is on record as 0.782.
Regarding `C#CCCCCCCCCCCCCCCCC(=O)O` [17-OCTADECYNOIC ACID], the “Log2 (fold) (luciferase activity, log2 of the fold difference relative to DMSO controls)” value is recorded as −0.358 and the “Fold (luciferase activity, fold difference relative to DMSO controls)” value was 0.780.
With `O=C(/C=C/c1ccc(O)c(O)c1)OCCc1ccccc1` [CAPE], the “Log2 (fold) (luciferase activity, log2 of the fold difference relative to DMSO controls)” value is recorded as −0.324 and the “Fold (luciferase activity, fold difference relative to DMSO controls)” value stood at 0.799.
For `CC1(C)CCC2=C(O1)c1ccccc1C(=O)C2=O` [beta-lapachone], the “Log2 (fold) of luciferase activity relative to DMSO controls” value came to 0.070 and the “Fold (luciferase activity relative to DMSO controls)” value is 1.050 fold.
Turning to `Nc1ccc2c3c(cccc13)C(=O)NC2=O`, the “Log2 (fold) (luciferase activity, log2 of the fold difference relative to DMSO controls)” value is reported as −0.433 and the “Fold (luciferase activity, fold difference relative to DMSO controls)” value amounted to 0.741.
`Cc1cccc(Nc2cc(Cl)nc(SCC(=O)O)n2)c1C` [WY-14643]: the “Log2 (fold) of luciferase activity relative to DMSO controls” value was 0.020 and the “Fold (luciferase activity relative to DMSO controls)” value stood at 1.014 fold.
In the case of `Cc1ccc(S(=O)(=O)/C=C/C#N)cc1` [BAY 11-7082], the “Log2 (fold) (luciferase activity, log2 of the fold difference relative to DMSO controls)” value is reported as −0.470 and the “Fold (luciferase activity, fold difference relative to DMSO controls)” value is recorded as 0.722.
On the same counts, the results for `CN(C)C[C@H](O)Cn1c2ccc(Br)cc2c2cc(Br)ccc21` (racemic) [Wiskostatin] are −0.646 and 0.639.
As to `CCCCc1oc2ccccc2c1C(=O)c1cc(I)c(OCCN(CC)CC)c(I)c1` [AMIODARONE], the “Log2 (fold) of luciferase activity relative to DMSO controls” value was 0.102 and the “Fold (luciferase activity relative to DMSO controls)” value is listed as 1.074 fold.
Turning to `CCCCCCCC/C=C\CCCCCCCC(=O)OCC(CO)OC(=O)CCCCCCC/C=C\CCCCCCCC` (stereo not shown) [1,2-DIOLEOYL-GLYCEROL (18:1)], the “Log2 (fold) of luciferase activity relative to DMSO controls” value is 0.443 and the “Fold (luciferase activity relative to DMSO controls)” value is given as 1.359 fold.
The like results for `N=C(N)NC(=O)c1nc(Cl)c(N)nc1N` [AMILORIDE] were, in that order, −0.041 and 0.972 fold.
On to `CCCCC[C@H](O)/C=C/[C@H]1[C@H](O)CC(=O)[C@@H]1C/C=C\CCCC(=O)O` [PROSTAGLANDIN E2], for which the “Log2 (fold) (luciferase activity, log2 of the fold difference relative to DMSO controls)” value was −0.223 and the “Fold (luciferase activity, fold difference relative to DMSO controls)” value stood at 0.857.
On the same counts, the results for `C=C(C)[C@@H]1CC[C@]2(C(=O)O)CC[C@]3(C)[C@H](CC[C@@H]4[C@@]5(C)CC[C@H](O)C(C)(C)[C@@H]5CC[C@]43C)[C@@H]12` [Betulinic acid] are −0.708 and 0.612.
For the molecule `CCCC(=O)Nc1nc2c(ncn2C2O[C@H]3COP(=O)(O)O[C@@H]3[C@@H]2OC(=O)CCC)c(=O)[nH]1` (stereo partly shown) [dibutyrylcyclic GMP], the “Log2 (fold) (luciferase activity, log2 of the fold difference relative to DMSO controls)” value is −0.342 and the “Fold (luciferase activity, fold difference relative to DMSO controls)” value came out at 0.789.
For the molecule `CC(C)[C@]12O[C@H]1[C@@H]1O[C@]13[C@]1(O[C@H]1C[C@H]1C4=C(CC[C@@]13C)C(=O)OC4)[C@@H]2O` [triptolide, reference compound], the “Log2 (fold)” value (Table 3 summary of hits, Screen ICCB) is −2.553.

The record behind these values is US20130096067A1, “DROSOPHILA TUMOR STEM CELL MODEL AND USES THEREOF” (priority 2011, published 2013).
